{
  "source": "paper PMC5978685",
  "about": "“Design, Synthesis, and Evaluation of Novel Immunomodulatory Small Molecules Targeting the CD40–CD154 Costimulatory Protein-Protein Interaction” (Molecules : A Journal of Synthetic Chemistry and Natural …, 2018)",
  "key": {"TNF-R1–TNFα": {"biological_target": "T1, TNF-R1–TNFα (Homo sapiens, UniProt P01375)", "T1 construct": "purchased Enzo Life Sciences", "T1 sequence (P01375 85-233 limits assumed)": "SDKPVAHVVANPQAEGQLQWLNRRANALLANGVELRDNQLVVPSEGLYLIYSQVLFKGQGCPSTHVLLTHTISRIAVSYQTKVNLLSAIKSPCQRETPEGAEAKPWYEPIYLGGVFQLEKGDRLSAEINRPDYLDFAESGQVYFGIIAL", "test": "cell-free ELISA-type binding inhibition assay, TNF-R1–TNFα", "method": "In parallel with the CD40–CD154 assay, the ability of these compounds to inhibit other TNFSFR–TNFSF PPIs, including OX40–OX40L, BAFFR–BAFF, and TNF-R1–TNF-α, was also assessed (Figure 3B–D).\nBinding inhibition assays were performed in a 96-well cell-free format as described before. Briefly, microtiter plates (Nunc F Maxisorp, 96-well; Thermo Fisher Scientific, Waltham, MA, USA) were coated overnight at 4 °C with 100 μL/well of Fc-conjugated receptors diluted in PBS pH 7.2. This was followed by blocking with 200 μL/well of blocking solution (PBS pH 7.2, 0.05% Tween-20, 1% BSA) for 1 h at RT. Then, plates were washed twice using washing solution (PBS pH 7.4, 0.05% Tween-20) and tapped dry before the addition of the appropriate FLAG tagged ligands along with different concentrations of tested dyes diluted in binding buffer (100 mM HEPES, 0.005% BSA pH 7.2) to give a total volume of 100 μL/well. After 1 h incubation, three washes were conducted, and anti-FLAG HRP conjugate was used to detect the bound FLAG-tagged ligand. Plates were washed four times before the addition of 120 μL/well of HRP substrate TMB (3,3′,5,5′-tetramethylbenzidine) and kept in the dark for up to 15 min. The reaction was stopped using 30 μL of 1M H2SO4, and the absorbance value was read at 450 nm. The concentrations of receptors used were 0.3 μg/mL for CD40, TNF-R1, and BAFFR; 0.6 μg/mL for OX40. The concentrations of the ligands were fixed at 0.02 μg/mL for CD154 and TNF-α, 0.06 μg/mL for OX40L, and 0.03 μg/mL for BAFF. These values were selected following preliminary testing to optimize response (i.e., to produce a high-enough signal at conditions close to half-maximal response, EC50). […] To verify that inhibition is not due to colloidal aggregation, CD40 binding inhibition was also measured in the presence of the non-ionic detergent Triton-X 100 (0.01%), as recommended for the detection of such effects.\n(§1) All binding inhibition and cell assays were tested in duplicate or triplicate per plates, and assays were performed as at least three independent experiments. As before, binding and cytotoxicity data were converted to percent inhibition and fitted with standard log inhibitor vs. normalized response models using nonlinear regression in GraphPad Prism (GraphPad, La Jolla, CA, USA) to establish half-maximal (median) inhibitory concentration (IC50) or median lethal concentration (LC50) values. Cell assay data were fitted with a similar model that also allowed for a variable slope using the log inhibitor vs. normalized response (variable slope) model from Prism with a Hill slope (n) shared across all compounds. Cell assays and draining lymph node data were analyzed by one-way repeated-measures analysis of variance (ANOVA) followed by Dunnett’s multiple comparison test as a post hoc test for individual differences using GraphPad Prism and a significance level of p < 0.05 for all comparisons.\nData are (counterclockwise) for human CD40–CD154 (CD40L) (A); OX40–OX40L (B); BAFFR–BAFF (C); and TNF-R1–TNFα (D) and were fitted with standard binding curves. Data are average ± SD (normalized to percent binding) for n = 3 independent experiments with duplicates for each condition."}, "[1]": {"system": "CD154-induced NF-κB activation in CD40 sensor cells", "test": "CD40 sensor cell assay (HEK Blue CD40, SEAP reporter)", "type": "cell-based, human", "details": "for IC50: Homo sapiens, CD154 100 ng/mL, 24 h", "source_text": "As further confirmation of the inhibitory activity of our compounds, a cell-based assay was used with sensor cells (HEK Blue CD40) containing a secreted embryonic alkaline phosphatase (SEAP) reporter gene under the control of a promoter fused to a NF-κB binding site and transfected with CD40. […] For all tested compounds, the corresponding IC50 values are higher than those determined in the cell-free binding inhibition assay (Table 1) representing a loss of activity which is likely due to non-specific binding on account of the presence of proteins and cells in the assay, as well as hydrophobicity-related problems. Cytotoxicities were also evaluated in these same cells and at the same concentrations using a standard MTS assay to ensure that effects are present at non-toxic concentration levels.\nCD40 expressing NF-κB sensor cells (HEK Blue, InvivoGen, San Diego, CA, USA) were used to assess the ability of the present compounds to block CD154-induced activation as described before. Briefly, cells were maintained in DMEM at 80% confluence for each experiment. Cells were trypsinized and re-suspended in the same medium without FBS and seeded on 96-well microtiter plates at a density of 50,000 cells/well in the absence and presence of various concentrations of compounds diluted in the same media. For ligand mediated stimulation, a concentration of recombinant human CD154 (100 ng/mL) found to induce an optimal response was maintained in the wells for this purpose. After 24 h of incubation at 37 °C, 40 μL supernatant of each well were taken and added to another 96-well microtiter plate containing 160 μL/well of QUANTI-Blue (InvivoGen). The level of SEAP was determined after 1 h of incubation at 37 °C by reading at 650 nm using a spectrophotometer. A monoclonal anti-human CD154 antibody (clone 40804, R&D Systems, Minneapolis, MN, USA) was used as a positive control at 240 nM concentration.\nas §1\nFigure 5 Inhibition of CD154-induced NF-κB activation in CD40 sensor cells by compounds 6, 14, 15, and 18 in a concentration-dependent manner. Tartrazine (TZ) and an anti-CD154 antibody (mAb; single dose, 240 nM) were included as negative and positive controls, respectively. Data are average ± SD (normalized to CD154-activated cells alone) for n = 2 independent experiments with duplicates for each condition."}, "[2]": {"details": "cell-free TNF-R1–TNFα binding inhibition, read-out: TNF IC50"}},
  "note": "Like-named read-outs stand apart in the source and are kept apart here.",
  "data": [
    {"smiles": "COC(=O)c1ccc(-c2ccc(C(=O)Nc3ccc(-c4ccc(C(=O)Nc5cccc6cccc(S(=O)(=O)O)c56)cc4)cc3)cc2)cc1", "note": "[Compound 15, 8-(4′-(4′-(Methoxycarbonyl)-[1,1′-biphenyl]-4-carboxamido)-[1,1′-biphenyl]-4-carboxamido)naphthalene-1-sulfonic acid]", "values": [
      {"measurement": "IC50", "setting": "TNF-R1–TNFα; [2]", "value": 26.5, "unit": "µM"},
      {"measurement": "IC50", "setting": "TNF-R1–TNFα; cell-free binding inhibition, read-out: TNF-R1–TNF IC50", "value": 26.5, "unit": "µM"},
      {"measurement": "inhibition of CD154-induced NF-κB activation (qualitative)", "setting": "[1]", "value": "concentration-dependent inhibition"},
      {"measurement": "IC50", "setting": "[1]", "value": 6, "unit": "µM"}
    ]},
    {"smiles": "O=C(Nc1ccc(-c2ccc(C(=O)Nc3cccc4cccc(S(=O)(=O)O)c34)cc2)nc1)c1ccc([N+](=O)[O-])cc1", "note": "[Compound 18, 8-(4-(5-(4-Nitrobenzamido)pyridin-2-yl)benzamido)naphthalene-1-sulfonic acid]", "values": [
      {"measurement": "IC50", "setting": "TNF-R1–TNFα; [2]", "value": 46.9, "unit": "µM"},
      {"measurement": "inhibition of CD154-induced NF-κB activation (qualitative)", "setting": "[1]", "value": "concentration-dependent inhibition"},
      {"measurement": "IC50", "setting": "[1]", "value": 8.7, "unit": "µM"}
    ]},
    {"smiles": "O=C(Nc1ccc(-c2ccc(C(=O)Nc3cccc4cccc(S(=O)(=O)O)c34)cc2)cc1)c1ccc([N+](=O)[O-])cc1", "note": "[Compound 6, 8-(4′-(4-Nitrobenzamido)biphenyl-4-ylcarboxamido)naphthalene-1-sulfonic acid]", "values": [
      {"measurement": "IC50", "setting": "TNF-R1–TNFα; [2]", "value": "> 1000", "unit": "µM"},
      {"measurement": "inhibition of CD154-induced NF-κB activation (qualitative)", "setting": "[1]", "value": "concentration-dependent inhibition"},
      {"measurement": "IC50", "setting": "[1]", "value": 19.9, "unit": "µM"}
    ]}
  ]
}
